Read-outs that look alike come from different tables or passages of the source.
Target: T1, TAAR1 (Mus musculus, UniProt Q923Y8)
T1 construct: expressed in transfected cells; host or cells: HEK293 (ATCC # CRL-1573), stably transfected with pIRESneo2 expression plasmid; membranes prepared
Experiment: TAAR1 radioligand binding assay on membranes of stably transfected HEK293 cells
Description: The ability of the compounds of the present invention to bind to TAAR 1 was investigated in accordance with the test given hereinafter.
The Expand High Fidelity PCR System (Roche Diagnostics) was used with 1.5 mM Mg^2+ and purified PCR products were cloned into pCR2.1-TOPO cloning vector (Invitrogen) following the instructions of the manufacturer. PCR products were subcloned into the pIRESneo2 vector (BD Clontech, Palo Alto, Calif.), and expression vectors were sequence verified before introduction in cell lines.
For the generation of stably transfected cell lines HEK293 cells were transfected with the pIRESneo2 expression plasmids containing the TAAR coding sequences (described above) with Lipofectamine 2000 (Invitrogen) according to the instructions of the manufacturer, and 24 hours post transfection the culture medium was supplemented with 1 mg/ml G418 (Sigma, Buchs, Switzerland). After a culture period of about 10 days, clones were isolated, expanded and tested for responsiveness to trace amines (all compounds purchased from Sigma) with the cAMP Biotrak Enzyme immunoassay (EIA) System (Amersham) following the non-acetylation EIA procedure provided by the manufacturer.
Cells at confluence were rinsed with ice-cold phosphate buffered saline without Ca^2+ and Mg^2+ containing 10 mM EDTA and pelleted by centrifugation at 1000 rpm for 5 min at 4° C. The pellet was then washed twice with ice-cold phosphate buffered saline and cell pellet was frozen immediately by immersion in liquid nitrogen and stored until use at −80° C. The cell pellet was then suspended in 20 ml HEPES-NaOH (20 mM), pH 7.4 containing 10 mM EDTA, and homogenized with a Polytron (PT 3000, Kinematica) at 10,000 rpm for 10 seconds. The homogenate was centrifuged at 48,000×g for 30 minutes at 4° C. and the pellet resuspended in 20 ml HEPES-NaOH (20 mM), pH 7.4 containing 0.1 mM EDTA (buffer A), and homogenized with a Polytron at 10,000 rpm for 10 seconds. The homogenate was then centrifuged at 48,000×g for 30 minutes at 4° C. and the pellet resuspended in 20 ml buffer A, and homogenized with a Polytron at 10,000 rpm for 10 seconds. Protein concentration was determined by the method of Pierce (Rockford, Ill.). The homogenate was then centrifuged at 48,000×g for 10 minutes at 4° C., resuspended in HEPES-NaOH (20 mM), pH 7.0 including MgCl2 (10 mM) and CaCl2 ([…]) (buffer B) at 200 μg protein per ml and homogenized with a Polytron at 10,000 rpm for 10 seconds.
Binding assay was performed at 4° C. in a final volume of 1 ml, and with an incubation time of 30 minutes. […] Non-specific binding was defined as the amount of [^3H]-rac-2-(1,2,3,4-tetrahydro-1-naphthyl)-2-imidazoline bound in the presence of the appropriate unlabelled ligand (10 μM). Competing ligands were tested in a wide range of concentrations (10 pM-30 μM). […] Each experiment was performed in duplicate. All incubations were terminated by rapid filtration through UniFilter-96 plates (Packard Instrument Company) and glass filter GF/C, pre-soaked for at least 2 h in polyethylenimine 0.3%, and using a Filtermate 96 Cell Harvester (Packard Instrument Company). The tubes and filters were then washed 3 times with 1 ml aliquots of cold buffer B. Filters were not dried and soaked in Ultima gold (45 μl/well, Packard Instrument Company) and bound radioactivity was counted by a TopCount Microplate Scintillation Counter (Packard Instrument Company).

[1] = mouse TAAR1, radioligand [3H]-rac-2-(1,2,3,4-tetrahydro-1-naphthyl)-2-imidazoline at 60 nM, 4° C., 30 minutes, read-out: Ki (μM) mouse

T1 sequence (Q923Y8 whole entry): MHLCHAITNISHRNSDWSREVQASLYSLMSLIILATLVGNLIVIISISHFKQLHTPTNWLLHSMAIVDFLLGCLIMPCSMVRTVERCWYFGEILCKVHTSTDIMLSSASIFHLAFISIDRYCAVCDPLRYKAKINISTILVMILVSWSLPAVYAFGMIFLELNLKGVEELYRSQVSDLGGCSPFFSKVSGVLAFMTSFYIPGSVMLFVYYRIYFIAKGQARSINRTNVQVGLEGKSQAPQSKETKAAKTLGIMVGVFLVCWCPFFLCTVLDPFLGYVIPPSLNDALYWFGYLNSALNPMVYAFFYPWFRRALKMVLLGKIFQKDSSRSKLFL

Structure (SMILES)	Ki [µM]	further results
C[C@@H]1c2ccccc2N(Cc2ncc[nH]2)[C@@H]1C (racemic) [Example 14, (2RS,3RS)-1-(1H-Imidazol-2-ylmethyl)-2,3-dimethyl-2,3-dihydro-1H-indole]	0.196	–
c1ccc2c(c1)CCCC2C1=NCCN1 (racemic) [[^3H]-rac-2-(1,2,3,4-tetrahydro-1-naphthyl)-2-imidazoline, reference compound]	–	Kd (radioligand binding to TAAR1 membranes, species not stated, read-out: calculated Kd value of the radioligand): 60 nM
c1ccc2c(c1)CCN2Cc1ncc[nH]1 [Example 1, 1-(1H-Imidazol-2-ylmethyl)-2,3-dihydro-1H-indole]	0.0289	–
Brc1ccc2c(c1)CCN2Cc1ncc[nH]1 [Example 4, 5-Bromo-1-(1H-imidazol-2-ylmethyl)-2,3-dihydro-1H-indole]	0.055	–
CCc1cccc2c1N(Cc1ncc[nH]1)CC2 [Example 15, 7-Ethyl-1-(1H-imidazol-2-ylmethyl)-2,3-dihydro-1H-indole]	0.0435	–
Clc1ccc2c(c1)N(Cc1ncc[nH]1)CC2 [Example 16, 6-Chloro-1-(1H-imidazol-2-ylmethyl)-2,3-dihydro-1H-indole]	0.035	–
Clc1cccc2c1CCN2Cc1ncc[nH]1 [Example 17, 4-Chloro-1-(1H-imidazol-2-ylmethyl)-2,3-dihydro-1H-indole]	0.0362	–
COc1cccc2c1N(Cc1ncc[nH]1)CC2 [Example 20, 1-(1H-Imidazol-2-ylmethyl)-7-methoxy-2,3-dihydro-1H-indole]	0.118	–
COc1cccc2c1CCN2Cc1ncc[nH]1 [Example 23, 1-(1H-Imidazol-2-ylmethyl)-4-methoxy-2,3-dihydro-1H-indole]	0.115	–
Clc1cccc2c1N(Cc1ncc[nH]1)CC2 [Example 24, 7-Chloro-1-(1H-imidazol-2-ylmethyl)-2,3-dihydro-1H-indole]	–	Ki [1]: 0.0557 µM
Brc1ccc2c(c1)CCCN2Cc1ncc[nH]1 [Example 25, 6-Bromo-1-(H-imidazol-2-ylmethyl)-1,2,3,4-tetrahydro-quinoline]	–	Ki [1]: 0.0951 µM
Cc1ccc2c(c1)N(Cc1ncc[nH]1)CC2 [Example 26, 1-(1H-Imidazol-2-ylmethyl)-6-methyl-2,3-dihydro-1H-indole]	–	Ki [1]: 0.129 µM
c1ccc(COc2cccc3c2CCCN3Cc2ncc[nH]2)cc1 [Example 38, 5-Benzyloxy-1-(1H-imidazol-2-ylmethyl)-1,2,3,4-tetrahydro-quinoline]	–	Ki [1]: 0.0513 µM

The next lines start with results.

Ki [µM]	Structure (SMILES)	further results
0.173	Cc1cccc2c1N(Cc1ncc[nH]1)CC2 [Example 32, 1-(1H-Imidazol-2-ylmethyl)-7-methyl-2,3-dihydro-1H-indole]	–
0.125	Cc1cccc2c1CCN2Cc1ncc[nH]1 [Example 33, 1-(1H-Imidazol-2-ylmethyl)-4-methyl-2,3-dihydro-1H-indole]	–
0.0046	c1ccc(Oc2cccc3c2CCCN3Cc2ncc[nH]2)cc1 [Example 42, 1-(1H-Imidazol-2-ylmethyl)-5-phenoxy-1,2,3,4-tetrahydro-quinoline]	–
